Reference: ChEMBL document CHEMBL5113405, “Discovery, enantioselective synthesis of myrtucommulone E analogues as tyrosyl-DNA phosphodiesterase 2 inhibitors and their biological activities” (Eur J Med Chem, 2022)
The source made the active and inactive calls. The calls are words filed in the database; no cut-off is given here.

What was measured:
[1] = tested on: DU-145; assay: Synergistic cytotoxicity against human DU145 cells assessed as inhibition of colony formation at 5 uM incubated for 14 days in presence of doxorubicin by crystal violet staining based analysis; format: functional, cell-based; conditions: time 14.0 day
[2] = tested on: A549; assay: Cytotoxicity against human A549 cells assessed as cell growth inhibition for 72 hrs by MTT assay; format: functional; conditions: Homo sapiens, A549, 72 h
[3] = tested on: DU-145; assay: Cytotoxicity against human DU-145 cells assessed as cell growth inhibition for 72 hrs by MTT assay; format: functional; conditions: Homo sapiens, DU-145, 72 h
[4] = Synergistic cytotoxicity against chicken DT40 cells expressing human TDP2 assessed as combination index incubated for 72 hrs in presence of etoposide by MTT-based Chou-Talalay method; format: functional, Gallus gallus
[5] = tested on: DU-145; assay: Synergistic cytotoxicity against human DU-145 cells assessed as combination index incubated for 72 hrs in presence of etoposide by MTT-based Chou-Talalay method; format: functional
[6] = tested on: DU-145; assay: Synergistic cytotoxicity against human DU-145 cells assessed as combination index incubated for 72 hrs in presence of doxorubicin by MTT-based Chou-Talalay method; format: functional
[7] = tested on: DU-145; assay: Synergistic cytotoxicity against human DU145 cells assessed as inhibition of colony formation at 5 uM incubated for 14 days in presence of etoposide by crystal violet staining based analysis; format: functional, cell-based; conditions: time 14.0 day
[8] = Synergistic cytotoxicity against chicken DT40 cells assessed as combination index incubated for 72 hrs in presence of etoposide by MTT-based Chou-Talalay method; format: functional, Gallus gallus
[9] = biological target: T1, Tyrosyl-DNA phosphodiesterase 2 (Homo sapiens, UniProt O95551); assay: Inhibition of N-terminal His-tagged human TDP2 expressed in Escherichia coli BL21 using 4-nitrophenyl phenylphosphonate as substrate incubated for 60 mins by EDTA based chromogenic assay
T1 sequence (O95551 whole entry): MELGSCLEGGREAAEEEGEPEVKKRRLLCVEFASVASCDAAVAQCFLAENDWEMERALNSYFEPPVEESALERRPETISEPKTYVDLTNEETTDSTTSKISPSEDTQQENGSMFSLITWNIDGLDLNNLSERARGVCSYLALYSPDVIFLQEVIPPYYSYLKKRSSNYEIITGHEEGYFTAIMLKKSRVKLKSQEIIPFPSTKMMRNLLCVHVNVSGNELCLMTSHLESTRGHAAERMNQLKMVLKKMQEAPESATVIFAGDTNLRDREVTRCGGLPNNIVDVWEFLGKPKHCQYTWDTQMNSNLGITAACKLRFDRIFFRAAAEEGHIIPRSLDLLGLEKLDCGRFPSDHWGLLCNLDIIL

[10] = tested on: DU-145; assay: Cytotoxicity against human DU-145 cells assessed as cell growth inhibition for 72 hrs in presence of etoposide by MTT assay; format: functional

CC(C)[C@@H]1C2=C(Oc3c1c(OCC(=O)N(C)C)cc1c3[C@@H](C(C)C)C3=C(O1)C(C)(C)C(=O)C(C)(C)C3=O)C(C)(C)C(=O)C(C)(C)C2=O
Activity [1]: Active | GI50 [2]: 62 µM | GI50 [3]: 26 µM | CI [4]: 0.48 | CI [5]: 0.26 | CI [6]: 0.81 | Activity [7]: Active | CI [8]: 0.95 | IC50 [9]: 5.4 µM | inhibition (INH) [10]: 77%
